# Assay results as given in patent US20220281821A1, “INDAZOLE COMPOUNDS AND THEIR PHARMACEUTICAL COMPOSITIONS” (Jinan University, priority 2019, published 2022).
# Columns and labels:
# TRKA = biological target: T1, TRKA (Homo sapiens, UniProt P04629); assay: Z′-LYTE kinase activity assay, TRKA; type: biochemical; settings: ATP 400 uM
# T1 construct: purchased life technologies PV3144
# Source text: (§1) Kinase activity assay: Z′-LYTE™ technology (detection by fluorescence, enzyme-conjugated format, based on the difference in sensitivity of phosphorylated and non-phosphorylated peptides to proteolytic cleavage) was applied, and using the principle of fluorescence resonance energy transfer (FRET), a Z′-LYTE™ FRET peptide substrate (Z′-LYTE™ Tyrosine 1 Peptide Substrate, Invitrogen, PV3190), and a secondary reaction were used to detect the inhibitory activity of the compounds on TRKs (TRK1, TRK2, TRK3) (life technologies, PV3144, PV3616, PV3617).
# (§2) Enzymatic reaction: In a 384-well plate, 5 μL of an enzyme-substrate system (50 mM HEPES pH 7.5, 0.01% BRIJ-35, 10 mM MgCl2, 1 mM EGTA, 2 μM Tyr 01 Peptide Substrate) was added and 5 nL of compound (concentration gradient) was transferred thereto by using the echo520 ultramicro liquid pipetting system. […] After shaking and mixing, centrifuging was performed. A reaction was carried out at 30° C. in the dark for 1.5 hours.
# (§3) The data were analyzed as follows:
# (§4) Phosphorylation ratio=1−{(emission ratio×F100%−C100%)/[C0%−C100%+emission ratio×(F100%−F0%)]}×100;
# (§5) Inhibition rate=100×(1−compound phosphorylation ratio/negative control phosphorylation ratio).
# (§6) IC50 values were calculated by using GraphPad Prism 5.0 software.
# TRKB = biological target: T2, TRKB (Homo sapiens, UniProt Q16620); assay: Z′-LYTE kinase activity assay, TRKB; type: biochemical; settings: ATP 25 uM
# T2 construct: purchased life technologies PV3616
# T2 sequence (Q16620 32-822): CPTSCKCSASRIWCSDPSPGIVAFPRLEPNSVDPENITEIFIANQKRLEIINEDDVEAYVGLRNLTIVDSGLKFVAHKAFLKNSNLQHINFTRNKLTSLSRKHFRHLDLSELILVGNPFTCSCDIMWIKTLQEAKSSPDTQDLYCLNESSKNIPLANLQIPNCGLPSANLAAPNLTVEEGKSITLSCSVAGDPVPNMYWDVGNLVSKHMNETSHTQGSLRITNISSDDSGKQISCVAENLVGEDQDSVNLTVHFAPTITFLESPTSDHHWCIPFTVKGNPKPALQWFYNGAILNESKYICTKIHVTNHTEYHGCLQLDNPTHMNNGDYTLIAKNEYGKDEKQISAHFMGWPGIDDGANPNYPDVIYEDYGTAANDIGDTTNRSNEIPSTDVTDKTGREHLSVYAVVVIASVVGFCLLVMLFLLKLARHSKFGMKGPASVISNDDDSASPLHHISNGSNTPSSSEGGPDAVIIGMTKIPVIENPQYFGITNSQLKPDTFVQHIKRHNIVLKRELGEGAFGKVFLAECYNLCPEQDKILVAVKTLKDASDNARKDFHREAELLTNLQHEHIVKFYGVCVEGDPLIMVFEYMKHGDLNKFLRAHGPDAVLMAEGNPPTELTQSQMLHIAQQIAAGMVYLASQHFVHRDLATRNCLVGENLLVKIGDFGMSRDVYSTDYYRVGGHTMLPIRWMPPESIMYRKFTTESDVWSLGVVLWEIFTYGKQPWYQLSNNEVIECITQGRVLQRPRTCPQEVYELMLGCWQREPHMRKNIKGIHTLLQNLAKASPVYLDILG
# Source text: as §1, §2, §3, §4, §5, §6
# TRKC = biological target: T3, TRKC (Homo sapiens, UniProt Q16288); assay: Z′-LYTE kinase activity assay, TRKC; type: biochemical; settings: ATP 50 uM
# T3 construct: purchased life technologies PV3617
# T3 sequence (Q16288 32-839): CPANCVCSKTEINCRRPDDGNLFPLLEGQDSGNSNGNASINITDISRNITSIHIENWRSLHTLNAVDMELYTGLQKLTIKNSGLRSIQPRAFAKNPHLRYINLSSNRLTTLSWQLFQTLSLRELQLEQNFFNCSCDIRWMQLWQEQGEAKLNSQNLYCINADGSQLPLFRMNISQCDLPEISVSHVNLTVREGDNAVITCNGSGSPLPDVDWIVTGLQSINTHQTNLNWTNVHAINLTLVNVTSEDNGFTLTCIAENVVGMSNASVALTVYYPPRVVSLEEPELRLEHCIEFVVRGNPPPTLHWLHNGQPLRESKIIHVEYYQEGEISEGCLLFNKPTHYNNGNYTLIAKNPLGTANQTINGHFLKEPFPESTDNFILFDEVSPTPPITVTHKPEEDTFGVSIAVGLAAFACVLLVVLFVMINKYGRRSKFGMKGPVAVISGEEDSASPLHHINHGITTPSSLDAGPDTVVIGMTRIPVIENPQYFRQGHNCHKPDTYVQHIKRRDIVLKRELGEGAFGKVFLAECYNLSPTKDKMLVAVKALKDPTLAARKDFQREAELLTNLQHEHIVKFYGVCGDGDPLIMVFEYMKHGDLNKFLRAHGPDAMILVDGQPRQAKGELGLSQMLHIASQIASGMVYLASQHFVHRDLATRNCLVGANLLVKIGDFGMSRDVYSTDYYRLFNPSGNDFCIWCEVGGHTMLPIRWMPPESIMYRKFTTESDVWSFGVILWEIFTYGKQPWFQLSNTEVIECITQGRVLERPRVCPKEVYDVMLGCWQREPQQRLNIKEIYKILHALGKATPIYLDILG
# Source text: as §1, §2, §3, §6
# BaF3-CD74-NTRK1 = biological target: T4, BaF3-CD74-NTRK1 (Homo sapiens, UniProt P04629); assay: Cell proliferation inhibition (CCK-8), BaF3-CD74-NTRK1 stable strain; type: cell-based, mouse; settings: BaF3-CD74-NTRK1, 72 hours
# T4 construct: fused on or other part: P04233 (HLA class II histocompatibility antigen gamma chain)
# T4 sequence (P04629 510-796 limits assumed): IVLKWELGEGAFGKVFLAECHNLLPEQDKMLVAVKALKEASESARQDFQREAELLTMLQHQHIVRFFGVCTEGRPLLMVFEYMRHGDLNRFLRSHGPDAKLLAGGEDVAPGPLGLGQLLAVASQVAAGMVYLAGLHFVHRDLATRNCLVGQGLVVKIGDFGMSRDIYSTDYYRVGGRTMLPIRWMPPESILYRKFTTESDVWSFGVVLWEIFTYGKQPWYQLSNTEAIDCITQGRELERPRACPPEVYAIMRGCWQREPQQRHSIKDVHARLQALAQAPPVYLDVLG
# In short: (§7)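 Ba/F3 cells stably electroporated with ETV6-NTRK3, CD74-NTRK1 or ETV6-NTRK2, selected with G418 and grown without IL3, then cloned by limiting dilution.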
# BaF3-ETV6-NTRK2 = biological target: T5, BaF3-ETV6-NTRK2 (Homo sapiens, UniProt Q16620); assay: Cell proliferation inhibition (CCK-8), BaF3-ETV6-NTRK2 stable strain; type: cell-based, mouse; settings: BaF3-ETV6-NTRK2, 72 hours
# T5 construct: fused on or other part: P41212 (Transcription factor ETV6)
# T5 sequence (Q16620 538-822 limits assumed): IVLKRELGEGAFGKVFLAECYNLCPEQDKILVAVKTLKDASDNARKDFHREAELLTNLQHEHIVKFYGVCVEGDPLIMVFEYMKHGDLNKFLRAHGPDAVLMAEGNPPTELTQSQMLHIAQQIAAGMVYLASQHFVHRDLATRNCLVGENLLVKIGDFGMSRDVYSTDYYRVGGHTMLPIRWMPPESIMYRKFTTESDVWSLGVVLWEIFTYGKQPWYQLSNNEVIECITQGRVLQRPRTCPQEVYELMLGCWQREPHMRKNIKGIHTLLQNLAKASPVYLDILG
# In short: as §7
# BaF3-ETV6-NTRK3 = biological target: T6, BaF3-ETV6-NTRK3 (Homo sapiens, UniProt Q16288); assay: Cell proliferation inhibition (CCK-8), BaF3-ETV6-NTRK3 stable strain; type: cell-based, mouse; settings: BaF3-ETV6-NTRK3, 72 hours
# T6 construct: fused on or other part: P41212 (Transcription factor ETV6)
# T6 sequence (Q16288 whole entry, the tested form may be a part): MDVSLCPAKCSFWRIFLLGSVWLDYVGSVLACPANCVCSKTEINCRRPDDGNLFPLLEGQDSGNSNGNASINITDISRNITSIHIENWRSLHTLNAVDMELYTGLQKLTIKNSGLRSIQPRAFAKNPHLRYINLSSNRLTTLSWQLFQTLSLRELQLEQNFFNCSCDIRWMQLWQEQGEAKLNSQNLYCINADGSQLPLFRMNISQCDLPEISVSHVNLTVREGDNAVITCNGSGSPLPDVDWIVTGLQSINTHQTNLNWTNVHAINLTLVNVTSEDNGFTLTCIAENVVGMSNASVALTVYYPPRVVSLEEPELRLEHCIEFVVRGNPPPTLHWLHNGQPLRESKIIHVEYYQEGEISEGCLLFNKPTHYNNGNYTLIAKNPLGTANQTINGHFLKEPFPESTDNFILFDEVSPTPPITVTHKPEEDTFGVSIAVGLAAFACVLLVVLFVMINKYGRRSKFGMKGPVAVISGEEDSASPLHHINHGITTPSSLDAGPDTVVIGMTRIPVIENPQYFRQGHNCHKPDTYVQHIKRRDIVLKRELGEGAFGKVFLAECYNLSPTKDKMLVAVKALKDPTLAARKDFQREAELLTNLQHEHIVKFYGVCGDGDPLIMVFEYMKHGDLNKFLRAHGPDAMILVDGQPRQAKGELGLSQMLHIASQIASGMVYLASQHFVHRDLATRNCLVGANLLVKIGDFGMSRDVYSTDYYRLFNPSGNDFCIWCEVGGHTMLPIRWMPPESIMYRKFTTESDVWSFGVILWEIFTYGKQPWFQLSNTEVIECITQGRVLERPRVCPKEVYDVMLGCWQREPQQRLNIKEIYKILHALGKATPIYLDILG
# In short: as §7
# T1 sequence (P04629 440-796 limits assumed): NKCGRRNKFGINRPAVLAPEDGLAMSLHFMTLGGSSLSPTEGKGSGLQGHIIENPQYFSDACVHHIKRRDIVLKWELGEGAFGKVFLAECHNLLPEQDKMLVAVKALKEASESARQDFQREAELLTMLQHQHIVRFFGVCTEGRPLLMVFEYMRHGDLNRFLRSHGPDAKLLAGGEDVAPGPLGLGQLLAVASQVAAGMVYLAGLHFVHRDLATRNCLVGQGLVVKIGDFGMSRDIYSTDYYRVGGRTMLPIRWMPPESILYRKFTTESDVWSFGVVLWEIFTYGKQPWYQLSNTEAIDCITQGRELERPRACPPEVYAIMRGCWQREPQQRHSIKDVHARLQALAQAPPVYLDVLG
SMILES,IC50 (TRKA) [µM],IC50 (TRKB) [µM],IC50 (TRKC) [µM],IC50 (BaF3-CD74-NTRK1) [µM],IC50 (BaF3-ETV6-NTRK2) [µM],IC50 (BaF3-ETV6-NTRK3) [µM]
"Clc1cccc(Cc2ccc3[nH]nc(C#Cc4ccccn4)c3c2)c1 [DYX-134Q, 5-(3-chlorobenzyl)-3-(pyridin-2-ylethynyl)-1H-indazole]",0.0919,0.124,0.0403,> 10,4.62,2.65
"Clc1cccc(Cc2ccc3[nH]nc(/C=C/c4ccccn4)c3c2)c1 [DYX-134X, (E)-5-(3-chlorobenzyl)-3-(2-(pyridin-2-yl)vinyl)-1H-indazole]",0.0709,0.211,0.0283,2.36,1.88,0.846
"COc1cccc(Cc2ccc3[nH]nc(C#Cc4ccccn4)c3c2)c1 [DYX-135Q, 5-(3-methoxybenzyl)-3-(pyridin-2-ylethynyl)-1H-indazole]",0.292,0.817,0.211,> 10,> 10,> 10
"COc1cccc(Cc2ccc3[nH]nc(/C=C/c4ccccn4)c3c2)c1 [DYX-135X, (E)-5-(3-methoxybenzyl)-3-(2-(pyridin-2-yl)vinyl)-1H-indazole]",0.0494,0.0705,0.0225,2.99,2.98,2.4
"N#Cc1cccc(Cc2ccc3[nH]nc(/C=C/c4ccccn4)c3c2)c1 [DYX-136X, (E)-3-((3-(2-(pyridin-2-yl)vinyl)-1H-indazol-5-yl)methyl)benzonitrile]",0.0048,0.091,0.0058,0.603,1.07,0.733
"Cc1cccc(Cc2ccc3[nH]nc(C#Cc4ccccn4)c3c2)c1 [DYX-137Q, 5-(3-methylbenzyl)-3-(pyridin-2-ylethynyl)-1H-indazole]",0.213,0.397,0.0911,> 10,> 10,> 10
"Cc1cccc(Cc2ccc3[nH]nc(/C=C/c4ccccn4)c3c2)c1 [DYX-137X, (E)-5-(3-methylbenzyl)-3-(2-(pyridin-2-yl)vinyl)-1H-indazole]",0.0338,0.0808,0.0219,2.42,3.72,3.18
"FC(F)(F)c1cccc(Cc2ccc3[nH]nc(/C=C/c4ccccn4)c3c2)c1 [DYX-138X, (E)-3-(2-(pyridin-2-yl)vinyl)-5-(3-(trifluoromethyl)benzyl)-1H-indazole]",0.757,0.356,0.262,6.65,4.08,> 10

# Further lines, results first:
IC50 (TRKA) [µM],IC50 (TRKB) [µM],IC50 (TRKC) [µM],IC50 (BaF3-CD74-NTRK1) [µM],IC50 (BaF3-ETV6-NTRK2) [µM],IC50 (BaF3-ETV6-NTRK3) [µM],SMILES
0.0152,0.0678,0.0085,0.584,0.248,0.159,"Fc1cccc(Cc2ccc3[nH]nc(/C=C/c4ccccn4)c3c2)c1F [DYX-082, (E)-5-(2,3-difluorobenzyl)-3-(2-(pyridin-2-yl)vinyl)-1H-indazole]"
0.628,> 1,0.191,7.5,3.02,3.31,"Fc1cc(Cc2ccc3[nH]nc(/C=C/c4ccccn4)c3c2)cc(F)c1F [DYX-083, (E)-3-(2-(pyridin-2-yl)vinyl)-5-(3,4,5-trifluorobenzyl)-1H-indazole]"
0.0542,0.241,0.111,3.6,2.6,3.71,"Fc1cc(F)cc(Sc2ccc3[nH]nc(C#Cc4ccccn4)c3c2)c1 [DYX-086, 5-((3,5-difluorophenyl)thio)-3-(pyridin-2-ylethynyl)-1H-indazole]"
0.0099,0.0799,0.0357,0.48,0.295,0.158,"Fc1cc(F)cc(Sc2ccc3[nH]nc(/C=C/c4ccccn4)c3c2)c1 [DYX-090, (E)-5-((3,5-difluorophenyl)thio)-3-(2-(pyridin-2-yl)vinyl)-1H-indazole]"
0.0517,0.31,0.2,3.06,2.61,2.77,"Fc1cc(F)cc(Oc2ccc3[nH]nc(C#Cc4ccccn4)c3c2)c1 [DYX-092, 5-(3,5-difluorophenoxy)-3-(pyridin-2-ylethynyl)-1H-indazole]"
0.0218,0.0366,0.0248,0.595,0.571,0.5,"Fc1cc(F)cc(Oc2ccc3[nH]nc(/C=C/c4ccccn4)c3c2)c1 [DYX-101, (E)-5-(3,5-difluorophenoxy)-3-(2-(pyridin-2-yl)vinyl)-1H-indazole]"
0.0081,0.0431,0.0214,0.888,0.914,0.749,"O=S(=O)(c1cc(F)cc(F)c1)c1ccc2[nH]nc(C#Cc3ccccn3)c2c1 [DYX-108, 5-((3,5-difluorophenyl)sulfonyl)-3-(pyridin-2-ylethynyl)-1H-indazole]"
0.0012,0.007,0.0028,0.411,0.175,0.155,"O=S(=O)(c1cc(F)cc(F)c1)c1ccc2[nH]nc(/C=C/c3ccccn3)c2c1 [DYX-114, (E)-5-((3,5-difluorophenyl)sulfonyl)-3-(2-(pyridin-2-yl)vinyl)-1H-indazole]"
> 1,> 1,> 1,> 10,> 10,> 10,"Fc1cc(F)cc(-c2ccc3[nH]nc(C#Cc4ccccn4)c3c2)c1 [DYX-115, 5-(3,5-difluorophenyl)-3-(pyridin-2-ylethynyl)-1H-indazole]"
0.648,> 1,0.226,> 10,> 10,> 10,"Fc1cc(F)cc(-c2ccc3[nH]nc(/C=C/c4ccccn4)c3c2)c1 [DYX-119, (E)-5-(3,5-difluorophenyl)-3-(2-(pyridin-2-yl)vinyl)-1H-indazole]"
> 1,> 1,0.575,9.98,2.8,3.15,"Fc1cc(F)cc(Nc2ccc3[nH]nc(C#Cc4ccccn4)c3c2)c1 [DYX-129, N-(3,5-difluorophenyl)-3-(pyridin-2-ylethynyl)-1H-indazol-5-amine]"
0.319,0.993,0.235,3.81,9.84,3.09,"CN(c1cc(F)cc(F)c1)c1ccc2[nH]nc(C#Cc3ccccn3)c2c1 [DYX-130, N-(3,5-difluorophenyl)-N-methyl-3-(pyridin-2-ylethynyl)-1H-indazol-5-amine]"
0.0313,0.0713,0.02,2.9,1.61,2.21,"Fc1cc(F)cc(COc2ccc3[nH]nc(C#Cc4ccccn4)c3c2)c1 [DYX-131, 5-((3,5-difluorobenzyl)oxo)-3-(pyridin-2-ylethynyl)-1H-indazole]"
0.0033,0.0098,0.003,0.156,0.178,0.0962,"Fc1cc(F)cc(COc2ccc3[nH]nc(/C=C/c4ccccn4)c3c2)c1 [DYX-132, (E)-5-((3,5-difluorobenzyl)oxo)-3-(2-(pyridin-2-yl)vinyl)-1H-indazole]"
0.015,0.0257,0.0181,2.36,1.79,1.27,"CN(c1cc(F)cc(F)c1)c1ccc2[nH]nc(/C=C/c3ccccn3)c2c1 [DYX-139, (E)-N-(3,5-difluorophenyl)-N-methyl-3-(2-(pyridin-2-yl)vinyl)-1H-indazol-5-amine]"
0.318,> 1,0.155,3.08,2.46,3.1,"O=S(=O)(c1cc(F)cc(F)c1)c1cc2c(/C=C/c3ccccn3)n[nH]c2cn1 [DYX-149, (E)-5-((3,5-difluorophenyl)sulfonyl)-3-(2-(pyridin-2-yl)vinyl)-1H-pyrazolo[3,4-c]pyridine]"
0.0033,0.0094,0.0041,0.0652,0.163,0.12,"O=S(=O)(c1cc(F)cc(F)c1)c1ccc2[nH]nc(/C=C/c3ccccn3)c2n1 [DYX-150, (E)-5-((3,5-difluorophenyl)sulfonyl)-3-(2-(pyridin-2-yl)vinyl)-1H-pyrazolo[4,3-b]pyridine]"
